Assay results as given in patent US9744165B2, “Method for treating hypertension” (TSH Biopharm Corporation Ltd., priority 2010, dated 2017).

Key:
[1] = system: apolipoprotein E (apoE)-deficient mice; conditions: cited from earlier work
[2] = system: spontaneous hypertensive rats (SHR); experiment: Anti-hypertensive efficacy of monotherapy and combined therapy in spontaneous hypertensive rats (tail-cuff blood pressure); assay type: in vivo, rat
Description: An in vivo study was conducted to measure and compare the anti-hypertensive efficacy and tolerability of dextromethorphan and amlodipine in monotherapy and combined therapy in spontaneous hypertensive rats, an animal model for hypertension. The same study can be performed with other NADPH oxidase inhibitor and CCB.
Aged 18-week male normotensive Wistar Kyoto (WKY) and spontaneous hypertensive rats (SHR) were used in this study.
Untreated WKY and SHR were compared with SHR treated with amlodipine (1, 5 mg/kg/day) or dextromethorphan (1, 5, 25 mg/kg/day) and fix dose combination (AM+DM) using a matrix combination of above doses for 4 weeks. All the treatment groups are listed in Table 1, including G1˜G12 for SHR and G0 for WKY as a control.
Control rats (G0 and G1) received 1% solution of methylcellulose (1 ml/kg) by a gavage as a vehicle. AM and DM were suspended in 1% solution of methylcellulose and administered by a gavage in a 1 ml/kg volume. All compounds were administered for 4 weeks. Arterial blood pressure measurement and blood sampling were carried out before treatment, and after the second and forth week of drug administration.
Arterial blood pressure was measured in conscious rats with an automatic sphygmomanometer, using tail-cuff method. Before the measurements, the animals were placed inside a warming chamber (about 34° C.) for 30 min. The aim of the procedure is to calm the animals and dilate the tail blood vessels. Arterial blood pressure was measured at least three times for each animal. Changes in pressure are expressed as the percentage of baseline values.
Arterial blood pressure and blood sampling will be measured before treatment, and after the second and forth week of drug administration (FIG. 6).
Results are expressed as mean±SD. The normality of distribution was checked by means of Kolmogorov-Smirnov test with Lilliefors test. The statistical evaluation was performed using analysis of variance (ANOVA) and post hoc comparisons were performed by means of Least Significant Differences (LSD) test. If the data were not normally distributed, statistical evaluation was performed by using ANOVA (Kruskall-Wallis) and Mann-Whitney U test. Differences were considered significant when p<0.05.

[3] = system: animal models of hypertension; conditions: cited from earlier work

## COc1ccc2c(c1)[C@]13CCCC[C@@H]1[C@H](C2)N(C)CC3 [DM, (+)-3-methoxy-17-methyl-9α,13α,14α-morphinan]
[1]; aorta and carotid artery of apoE-deficient mice
  superoxide production: decreases superoxide production
[1]; mice, through direct inhibition of NADPH oxidase
  oxidative stress, atherosclerosis and neointima formation: reduces oxidative stress and inhibits atherosclerosis and neointima formation
[2]; DM alone at 1, 5 and 25 mg/kg/day by gavage for 4 weeks, FIGS. 1a-d
  blood pressure lowering effect (SBP, DBP, MBP): resulted in lowering of the blood pressure
[2]; DM alone, 1 vs 5 vs 25 mg/kg/day
  dosage response of blood pressure lowering: no clear dosage response was observed

## COc1cc(C(C)=O)ccc1O [apocynin]
[3]
  blood pressure: decrease blood pressure

## CCOC(=O)C1=C(COCCN)NC(C)=C(C(=O)OC)C1c1ccccc1Cl (stereo not shown) [AM, 3-ethyl 5-methyl 2-[(2-aminoethoxy)methyl]-4-(2-chlorophenyl)-1,4-dihydro-6-m ethylpyridine-3,5-dicarboxylate]
[2]; AM alone at 1 and 5 mg/kg/day by gavage for 4 weeks, FIGS. 2a-d
  blood pressure lowering effect (SBP, DBP, MBP): resulted in lowering of the blood pressure
[2]; AM alone, 1 vs 5 mg/kg/day
  dosage response of blood pressure lowering: more pronounced with the higher dose
